Values joined by “and” are separate entries in the source; they are usually repeats but may differ in a detail not shown here. Equal values may be shown once.

What all share (type): binding
Assay [1] deals with 16 mer poly A DNA. The experiment in a line: Melting curve analysis of poly T probes hybridized to poly A DNA. Conditions: 20 mM Tris, pH 7.5, 100 mM NaCl, 10 mM MgCl2; DNA to PNA oligomer 1:2 for PNA analogues. From the text: (§1) In this experiment we compared hybridized complexes of DNA/DNA, DNA/PNAs, RNA/DNA and PNA/PNAs, for the stability of the complex formed. Poly A DNA oligomers, poly T DNA oligomers, poly A RNA oligomers, and poly T RNA oligomers were synthesized by solid phase synthesis. PNA oligonucleotide analogues were synthesized by solid phase synthesis using methods disclosed herein. The classical PNA Poly T oligomer consisted of a PNA having a N-(2-aminoethyl)glycine backbone. […] The 1:2 Poly T PNA consisted of: biotin-linker-(HypNA-pPNA-pPNA)5-dT. The 1:3 Poly T PNA consisted of: biotin-linker-[(HypNA-pPNA)-(pPNA-pPNA)]4-dT.
(§2) To hybridize DNA/DNA and DNA/RNA oligomers, equal amounts of oligonucleotide were mixed in 20 mM Tris, pH 7.5, 100 mM NaCl, 10 mM MgCl2, incubated at 90° C. for 3 minutes and left to cool gradually to room temperature overnight. Samples were then heated at a rate of 1° C. per minute from 20° C. to 100° C., using a spectrophotometer linked to a thermal control unit. Changes in A260 were recorded and a Tm value was calculated for each complex.
(§3) To hybridize PNA oligonucleotide analogues to DNA and RNA oligomers, the ratio of DNA (or RNA) oligomer to PNA oligomer was 1:2. This 1:2 ratio was used to promote the formation of a triplex structure, with 2 PNA oligomers binding to each DNA oligomer.
(§4) These samples were hybridized and treated in a identical manner to the DNA/DNA and DNA/RNA complexes to obtain Tm values.

In assay [2] the test system is 16 mer poly A RNA. The experiment in a line: Melting curve analysis of poly T probes hybridized to poly A RNA. To be noted: 20 mM Tris, pH 7.5, 100 mM NaCl, 10 mM MgCl2; RNA to PNA oligomer 1:2 for PNA analogues.
Excerpt: as §1, §2, §3, §4

Assay [3] has as its system Target oligonucleotides (SEQ ID NO:33-36). The experiment in a line: Affinity PAGE capture of target DNA and RNA oligonucleotides, detection with ethidium bromide. Conditions: electrophoresis at 40° C. The text has this:
A HypNA-pPNA capture probe with the sequence: (Ch-Tp-Gh-Cp-Ah-Ap-Ah-Gp-Gh-Ap-Ch-Ap-Ch-Cp-Ah-Tp)-dG was synthesized coupled to a 5′ acrylamide residue as described in Example 19. The capture probe was co-polymerized with acrylamide as described in Example 18 in slots of an acrylamide gel as described in Rehman et al. (Nucleic Acids Research 27: 649-655 (1999)). Target oligonucleotides having the sequence: • d([…]) (SEQ ID NO:33)—complementary • d([…]) (SEQ ID NO:34)—mismatched • r([…]) (SEQ ID NO:35)—complementary • r([…]) (SEQ ID NO:36)—mismatched were electrophoresed through lanes of the gel at 40° C.
Following electrophoresis, the gel was stained with ethidium bromide and photographed under UV illumination.

For “biotin-linker-(HypNA-pPNA)7-dT [1:1 Poly T PNA-analog]”, in assay [1], the “Target: 16 mer poly A DNA Tm, ° C.” value is 81.1 °C and 81.9 °C. Also, in assay [2], the “Target: 16 mer poly A RNA Tm, ° C.” value was 73.0 °C and 72.7 °C.

Turning to “biotin-linker-(HypNA-pPNA-pPNA)5-dT [1:2 Poly T PNA-analog]”, the “Target: 16 mer poly A DNA Tm, ° C.” value in assay [1] is 74.4 °C and 74.0 °C. Moreover, the “Target: 16 mer poly A RNA Tm, ° C.” value in assay [2] is 66.1 °C and 66.0 °C.

Regarding “biotin-linker-[(HypNA-pPNA)-(pPNA-pPNA)]4-dT [1:3 Poly T PNA-analog]”, the “Target: 16 mer poly A DNA Tm, ° C.” value in assay [1] is 60.9 °C and 60.8 °C. Also, the “Target: 16 mer poly A RNA Tm, ° C.” value in assay [2] was 48.9 °C and 47.2 °C.

As to “(Ch-Tp-Gh-Cp-Ah-Ap-Ah-Gp-Gh-Ap-Ch-Ap-Ch-Cp-Ah-Tp)-dG [capture HypNA-pPNA probe]”, the “capture of complementary target oligonucleotides in the gel (ethidium bromide fluorescence)” value in assay [3] (complementary DNA and RNA targets, lanes 1, 3, and 5) is on record as “ethidium-stained fluorescent hybrids captured by the gel layer”. The “capture of mismatched target oligonucleotides in the gel (ethidium bromide fluorescence)” value in assay [3] (single nucleobase mismatched DNA and RNA targets, lanes 2, 4, and 6) was “did not result in the capture of a target”.

For the origin of these results see patent US6962906B2, “Oligonucleotide analogues, methods of synthesis and methods of use” (Active Motif, priority 2000, dated 2005).
